# Data taken from US7781421B2, “Neuroactive 13, 24-cyclo-18, 21-dinorcholanes and structurally related pentacyclic steriods” (Washington University, priority 2003, dated 2010).
# Read-outs that look alike come from different tables or passages of the source.
# Legend:
# Xenopus laevis tadpoles = assay: Tadpole loss of righting (LRR) and swimming (LSR) reflexes; assay type: in vivo; details: 3 h equilibration at room temperature; for EC50: read-out: LSR EC50 (loss of swimming response)
# In short: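 Groups of 10 early prelimb-bud Xenopus laevis tadpoles were held for 3 h at room temperature in oxygenated Ringer's containing compound (DMSO ≤0.1%). Loss of righting was scored as failure to right within 5 sec after flipping, and loss of swimming as failure to swim when touched. EC50 came from a Hill equation fit.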
# [1] = target: T1, rat α1β2γ2 GABAA Receptor (Rattus norvegicus, UniProt P18508+P62813+P63138, INS375LLRMFSFK); assay: Xenopus oocyte two-electrode voltage-clamp electrophysiology; assay type: cell-based; details: for Oocyte electrophysiology, ratio of currents in presence/absence of compound, 0.1 μM: 0.1 μM compound co-applied with 2 μM GABA; for Oocyte electrophysiology, ratio of currents in presence/absence of compound, 0.1 μM / Oocyte electrophysiology, ratio of currents in presence/absence of compound, 1 μM / Oocyte electrophysiology, ratio of currents in presence/absence of compound, 10 μM: −70 mV; for Oocyte electrophysiology, ratio of currents in presence/absence of compound, 1 μM: 1 μM compound co-applied with 2 μM GABA; for Oocyte electrophysiology, ratio of currents in presence/absence of compound, 10 μM: 10 μM compound co-applied with 2 μM GABA; for Gating (10 μM), ratio of compound only current/2 μM GABA current: direct current gated by 10 μM compound in the absence of GABA
# T1 construct: from linearized pBluescript vectors containing receptor coding regions; expressed in transfected cells; host or cells: Xenopus laevis oocytes injected with in vitro transcribed capped mRNA
# T1 sequence (P62813 28-455, stated change not applied): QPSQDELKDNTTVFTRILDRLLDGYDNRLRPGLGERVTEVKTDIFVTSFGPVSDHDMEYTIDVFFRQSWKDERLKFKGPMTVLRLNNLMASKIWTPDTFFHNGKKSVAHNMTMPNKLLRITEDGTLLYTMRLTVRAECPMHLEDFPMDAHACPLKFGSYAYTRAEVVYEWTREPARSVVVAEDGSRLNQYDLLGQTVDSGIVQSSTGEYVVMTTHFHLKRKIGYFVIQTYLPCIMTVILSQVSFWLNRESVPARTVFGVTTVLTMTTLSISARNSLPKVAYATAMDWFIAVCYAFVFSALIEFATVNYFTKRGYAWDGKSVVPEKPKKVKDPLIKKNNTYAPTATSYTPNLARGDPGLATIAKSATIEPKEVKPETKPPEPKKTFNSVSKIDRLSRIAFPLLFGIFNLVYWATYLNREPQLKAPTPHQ
# T1 sequence (P63138 26-474, stated change not applied): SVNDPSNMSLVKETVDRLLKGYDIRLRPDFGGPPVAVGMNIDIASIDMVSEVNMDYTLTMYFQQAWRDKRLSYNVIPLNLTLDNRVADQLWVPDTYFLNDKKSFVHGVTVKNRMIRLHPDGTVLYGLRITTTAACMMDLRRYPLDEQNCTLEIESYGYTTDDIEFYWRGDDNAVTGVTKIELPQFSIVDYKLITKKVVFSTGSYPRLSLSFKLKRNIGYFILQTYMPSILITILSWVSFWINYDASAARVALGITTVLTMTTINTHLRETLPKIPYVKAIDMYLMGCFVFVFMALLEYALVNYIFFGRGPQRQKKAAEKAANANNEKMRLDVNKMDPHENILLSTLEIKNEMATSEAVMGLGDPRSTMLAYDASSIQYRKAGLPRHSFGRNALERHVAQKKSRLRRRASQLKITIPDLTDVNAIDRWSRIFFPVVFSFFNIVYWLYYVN
# T1 sequence (P18508 with tags, fused parts or gaps INS375LLRMFSFK): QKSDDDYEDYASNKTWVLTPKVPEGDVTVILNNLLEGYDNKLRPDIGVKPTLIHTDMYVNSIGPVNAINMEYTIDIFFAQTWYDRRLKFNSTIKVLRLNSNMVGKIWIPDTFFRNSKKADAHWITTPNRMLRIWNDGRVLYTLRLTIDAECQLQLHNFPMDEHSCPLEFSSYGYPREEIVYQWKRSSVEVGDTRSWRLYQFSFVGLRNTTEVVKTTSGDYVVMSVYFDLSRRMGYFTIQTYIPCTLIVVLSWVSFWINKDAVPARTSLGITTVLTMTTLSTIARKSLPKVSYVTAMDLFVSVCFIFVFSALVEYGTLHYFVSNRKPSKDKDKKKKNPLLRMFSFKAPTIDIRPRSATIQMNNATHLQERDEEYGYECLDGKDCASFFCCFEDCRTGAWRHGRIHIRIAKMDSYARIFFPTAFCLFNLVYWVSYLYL
# In short: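 Oocytes injected with rat α1, β2, γ2L mRNA, voltage-clamped at −70 mV 2-5 days later in ND96. Compounds co-applied with 2 μM GABA for 20 s; peak current ratio with/without compound, n≥4 oocytes. (G): current from 10 μM compound alone, as ratio to 2 μM GABA current.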
# [2] = target: GABAA receptor ([35S]-TBPS binding site, rat brain cortical membranes); assay: Displacement of [35S]-TBPS binding, rat brain cortical membranes; details: 5 μM GABA, 2 nM [35S]-TBPS; ± standard error of the means
# In short: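 Rat cortical P2 membranes (0.5 mg/mL protein) incubated 2 h at room temperature with 2 nM [35S]-TBPS, 5 μM GABA and steroid (1 nM–10 μM) in 200 mM NaCl/50 mM potassium phosphate, pH 7.4. Filter-bound radioactivity counted; IC50 from Hill equation fit, triplicate points.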
SMILES,LRR ED50 (loss of righting response) (Xenopus laevis tadpoles),LSR EC50 (loss of swimming response) (Xenopus laevis tadpoles),melting point,"Oocyte electrophysiology, ratio of currents in presence/absence of compound, 0.1 μM [1]","Oocyte electrophysiology, ratio of currents in presence/absence of compound, 1 μM [1]","Oocyte electrophysiology, ratio of currents in presence/absence of compound, 10 μM [1]","Gating (10 μM), ratio of compound only current/2 μM GABA current [1]",IC50 [2],EC50 (Xenopus laevis tadpoles),"EC50 (Xenopus laevis tadpoles; Xenopus laevis, 3 h)"
"COC1CCCC23CCC4C(CCC5CC(O)CCC54C)C2CCC13 [Compound 70, (3α,5α,20R)-20-Methoxy-13,24-cyclo-18,21-dinorcholan-3-ol]",>10000 nM,None @ 10,200 to 202 °C,0.74 ± 0.01,0.87 ± 0.02,1.02 ± 0.03,0.00 ± 0.00,868 ± 78 nM,,
"CC12CCC(O)CC1CCC1C2CCC23CC(=O)C=CC2CCC13 (stereo not drawn) [Compound 22c, (3α,5β)-3-Hydroxy-13,24-cyclo-18,21-dinorchol-20(22)-en-23-one]",1050 ± 0 nM,,209 to 211 °C,1.07 ± 0.10,1.83 ± 0.25,4.50 ± 0.46,−0.02 ± 0.01,268 ± 43 nM,2720 ± 10 nM,
"C[C@]12CC[C@@H](O)C[C@@H]1CCC1C3CC[C@@H]4C(C#N)=CCC[C@]34CCC12 (stereo partly drawn) [Compound 57, (3α,5α)-3-Hydroxy-13,24-cyclo-18,21-dinorchol-20(22)-ene-20-carbonitrile]",420 nM,None @ 10,193 to 195 °C,0.91 ± 0.03,0.96 ± 0.04,3.18 ± 0.24,0.01 ± 0.02,433 ± 30 nM,,
"C[C@]12CC[C@@H](O)C[C@@H]1CCC1C3CC[C@@H]4[C@@H]5O[C@@H]5CC[C@]34CCC12 (stereo partly drawn) [Compound 72, (3α,5α,20S,22R)-20,22-epoxy-13,24-cyclo-18,21-dinorcholan-3l]",19300 ± 30800 nM,None @ 10,203.5 to 205 °C,0.90 ± 0.15,2.20 ± 0.25,6.39 ± 1.33,−0.01 ± 0.04,323 ± 25 nM,,
"C[C@]12CC[C@@H](O)C[C@H]1CCC1C3CC[C@@H]4C(=O)CCC[C@]34CCC12 (stereo partly drawn) [Compound 2b, (3α,5β)-3-Hydroxy-13,24-cyclo-18,21-dinorcholan-20-one]",940 ± 550 nM,,220 to 222 °C,0.93 ± 0.06,1.12 ± 0.14,1.51 ± 0.13,−0.25 ± 0.21,1780 nM,,5480 ± 80 nM
"CC12CCC(O)CC1CCC1C2CCC23CCCC(O)C2CCC13 [Compound 67, (3α,5α,20S)-13,24-cyclo-18,21-dinorcholane-3,20-diol]",None @ 10,None @ 10,261 to 262 °C,0.89 ± 0.03,0.94 ± 0.08,1.37 ± 0.15,−0.01 ± 0.00,613 ± 92 nM,,
"C[C@]12CC[C@@H](O)C[C@@H]1CCC1C3CCC4CCC(=O)C[C@@]43CCC12 (stereo partly drawn) [Compound 4a, (3α,5α)-3-Hydroxy-13,24-cyclo-18,21-dinorcholan-23-one]",1120 ± 360 nM,,185 to 186 °C,1.39 ± 0.38,1.64 ± 0.15,6.49 ± 0.59,0.32 ± 0.01,334 ± 17 nM,,3580 ± 1080 nM
"C[C@]12CC[C@@H](O)C[C@@H]1CCC1C3CC[C@@H]4CC[C@H](C#N)C[C@]34CCC12 (stereo partly drawn) [Compound 50, (3α,5α,20S)-3-Hydroxy-13,24-cyclo-18,21-dinorcholane-23-carbonitrile]",350 ± 70 nM,,157 to 159 °C,,,2.1 ± 0.2,,482 ± 20 nM,,950 ± 10 nM
"CC12CCC(O)CC1CCC1C2CCC23CCCC(O)C2CCC13 [Compound 68, (3α,5α,20R)-13,24-cyclo-18,21-dinorcholane-3,20-diol]",>10000 nM,None @ 10,269 to 271 °C,0.74 ± 0.05,0.74 ± 0.05,0.79 ± 0.04,0.01 ± 0.02,1540 nM,,
"CC12CCC(O)CC1CCC1C2CCC23CC=CC(=O)C2CCC13 (stereo not drawn) [Compound 11b, (3α, 5β)-3-Hydroxy-13,24-cyclo-18,21-dinorchol-22-en-20-one]",2560 ± 1390 nM,,253 to 254 °C,1.07 ± 0.17,1.17 ± 0.11,2.34 ± 0.37,0.11 ± 0.04,1570 nM,,8950 ± 10 nM
"CC12CCC(O)CC1CCC1C2CCC23CCC(=CC#N)C2CCC13 (stereo not drawn) [Compound 96, (3α,5α,20E)-3-Hydroxy-18,21-cyclopregnan-20-ylideneacetonitrile]",2770 ± 1160 nM,None @ 10,201 to 202.5 °C,1.40 ± 0.21,2.33 ± 0.30,2.90 ± 0.29,0.03 ± 0.03,168 ± 32 nM,,
